Results as given in PMC3386958, “High-throughput Screening and Sensitized Bacteria Identify an M. tuberculosis Dihydrofolate Reductase Inhibitor with Whole Cell Activity” (PLoS ONE, 2012).

Molecular target: T1, Mtb dihydrofolate reductase (DHFR) (Mycobacterium tuberculosis, UniProt P9WNX1)
T1 construct: gene folA; recombinant, 6-histidine tag at the amino terminus
T1 sequence (P9WNX1 1-161): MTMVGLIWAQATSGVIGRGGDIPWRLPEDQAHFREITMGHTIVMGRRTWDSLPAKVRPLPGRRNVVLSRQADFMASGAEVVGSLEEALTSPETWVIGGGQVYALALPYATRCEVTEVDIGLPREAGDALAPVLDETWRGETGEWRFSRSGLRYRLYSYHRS
Assay type: biochemical

Nc1nc(N)c2cc(C(F)(F)F)ccc2n1 [NC00094221]
IC50: 22.4 nM
